In patent publication US8124655B2, “Use of LR-90 and LR-102 to overcome insulin resistance” (City of Hope, priority 2007, dated 2012):

Columns and labels:
[1] = test system: Zucker diabetic fatty rats (ZDF, fa/fa); experiment: Metabolic data of ZDF rats treated with LR-90 or LR-102 (Example 2); assay type: in vivo, rat; settings: ZDF rats at 40 weeks of age, Mean ± SEM
Description: The present Example presents the results of an investigation of the effects of LR-90, an inhibitor of AGE/ALE formation, in male Zucker diabetic fatty rats (ZDF, fa/fa) fed with Purina 5008 diet until 40 weeks of age, and their hetorozygous lean littermates (ZDF fa/+) as non-hyperglycemic controls. LR-90 at 50 mg/L of drinking water was given to a subgroup of ZDF rats after the rats developed spontaneous diabetes at 13 weeks of age. At 40 weeks of age, and before killing the animals, their weight was measured; HbA1c, plasma glucose, insulin, triglycerides, cholesterol, CRP and urinary albumin and creatinine concentrations were measured. After euthanizing all animals, organs such as the kidneys, eyeballs, liver, heart, aortae and pancreas were dissected and subjected to immunohistochemical staining, RT-PCR, Western blotting and microscopy.

[2] = described in U.S. Pat. No. 6,787,566; cited from earlier work
[3] = test system: Zucker diabetic fatty rats (ZDF, fa/fa); experiment: Pancreatic islet immunohistochemistry and PAMS staining (Example 2); assay type: in vivo, rat; settings: FIG. 8
Description: FIG. 7. Immunohistochemical analysis and quantification of islet cells. ZDF GM fa/fa rats and lean control rats were fed with high fat diet for 30 weeks and received either nothing or LR-90 or LR-102 in their drinking water. Pancreatic sections from various groups of animals were stained with anti-insulin antibody or anti-glucagon antibody. A. Representative images with the overlay of the insulin (green) and glucagon (red staining). […] B. Insulin-positive β-cell-to-glucagon-ratio was also measured from these images.
FIG. 8. Periodic acid methenamine silver (PAMS) staining of pancreatic tissues. Sections from cryopreserved pancreas of each group of animals on the study were stained with PAMS and examined under light microscopy.
LR-90 at 50 mg/L of drinking water was given to a subgroup of ZDF rats after the rats developed spontaneous diabetes at 13 weeks of age. At 40 weeks of age, and before killing the animals, their weight was measured; HbA1c, plasma glucose, insulin, triglycerides, cholesterol, CRP and urinary albumin and creatinine concentrations were measured. After euthanizing all animals, organs such as the kidneys, eyeballs, liver, heart, aortae and pancreas were dissected and subjected to immunohistochemical staining, RT-PCR, Western blotting and microscopy.

## CC(C)(Oc1ccc(N=Cc2ccc(C=Nc3ccc(OC(C)(C)C(=O)O)cc3)cc2)cc1)C(=O)O [LR-102, 1,4-benzene-bis[4-methyleneaminophenoxyisobutyric acid]]
[1]; drug in drinking water
  Plasma glucose: 29.8 ± 3.2 mmol/dL
[1]
  Cholesterol: 290 ± 35 mg/dL
  HbA1c: 2.80 ± 0.12%
  Plasma CRP: 0.77 ± 0.05 mg/mL
  Plasma insulin, ELISA: 0.68 ± 0.10 ng/mL
  Plasma insulin, RIA: 0.65 ± 0.10 ng/mL
  Triglycerides: 536 ± 63 mg/dL
  Urinary Albumin: 35.4 ± 15.8 mg/24 h
[2]
  breaking AGE-protein cross-links: active
[3]
  PAMS staining of pancreatic islets: amelioration
